Assay results reported in patent publication US4174407A, “Antiviral agent” (Sumitomo Chemical Company, Limited, priority 1978, dated 1979).
≈ marks a conversion by molar mass, not a printed value. Counter-ions that a name gives are not always drawn. Like-named read-outs stand apart in the source and are kept apart here.

What was measured:
[1] = tested on: herpes simplex type 1 (HF strain); assay: Tube dilution method, virus-induced cytopathic effect in tissue culture (antiviral MIC); type: cell-based; conditions: for MIC: read-out: Minimum virus growth inhibition concentration (MIC)
Influenza Ao PR/8 = type: in vivo, ddY male mice; conditions: 7 days after infection, control 4.8
[2] = Cytotoxicity in KB cells by microscopic examination (MCC); conditions: human
[3] = Cytotoxicity in HeLa cells by microscopic examination (MCC); conditions: human
[4] = tested on: herpes simplex virus type 1 (HF strain); assay: Effects on herpeskeratitis, eye lotion in rabbits (cure period and toxicity); type: in vivo; conditions: 0.5% eye lotion in 1.4% polyvinyl alcohol, every two hours, five times a day, 7 days; rabbit eye
Description: (§1) Therapeutic effects were determined by using two experimental infections as follows.
The corneal epithelium of each eye of rabbit was anesthetized and scratched, then each eye was infected with herpes simplex virus type 1 (HF strain). One of each infected eyes was used for treatment with the compound A and the other was used for viral control. One half % eye lotion of the compound A in 1.4% polyvinyl alcohol was applied every two hours, five times a day during 7 days 12 hr. after virus infection. Each eye was daily examined and scored the lesion on the conjunctiva, cornea and the iris for 7 days. In this score 0 means normal and 4 means maximal severity. The eyes scratched but not infected with virus were similarly treated with compound A in parallel as toxicity control.

[5] = tested on: herpes simplex virus type 1 HF strain; assay: Effects on herpesencephalitis, intracerebrally infected mice; type: in vivo; conditions: for Survival ratio (no. of survivors/no. of total mice): 21st day, control 0/10
Description: as §1
Mice were anesthetized with ether and were infected intracerabrally (i.c.) with 30 LD50 of herpes simplex virus type 1 HF strain. Infected mice were treated with various therapeutic schedules. The antiviral effects of the compound A was determined by comparing the number of survivors at 3 weeks after viral infection and the mean survival days of the drug-treatedand placebo-treated animals.
(a) Dose of administration
(b) Schedule of administration of each route was as follows, i.c. (intracerebrally): single administration simultaneously with virus infection p.o (per os): twice administration per day during 8.5 days from 4 hr. after virus infection s.c. (subcutaneously): twice administration per day during 8.5 days from 4 hr. after virus infection i.v. (intravenously): single administration at 3 hr. after virus infection
(c) The animals were examined for 21 days and deaths occuring were recorded.
(d) Survivors at 21st day.

herpes virus = assay: Antiviral activities on herpes virus (general statement)
influenza virus = assay: Antiviral activities on influenza virus (general statement)
Newcastle disease virus = conditions: Aigami et al., J. Med. Chem. 19, 536, 1976; cited from earlier work
in vivo = conditions: mouse
DNA virus = conditions: general knowledge; cited from earlier work
[6] = host cells KB, 1000 TCD50, 72 hr, 37° C.

NC12CC3CC(CC(C3)C1)C2 [Amantadine HCl, amantadine hydrochloride, reference compound]
MIC ([1]; Human alphaherpesvirus 1, 72 h): 50 µg/mL | Minimum virus growth inhibition concentration (MIC) [1, 6]: 50 µg/mL | Lung Lesion Score (Influenza Ao PR/8; 10 mg/kg s.c., * P<0.05 (Student's t test)): 4.3 | Lung Lesion Score (Influenza Ao PR/8; 25 mg/kg s.c., * P<0.05 (Student's t test)): 4.1 | Lung Lesion Score (Influenza Ao PR/8; 50 mg/kg s.c., * P<0.05 (Student's t test)): 4.0 | MCC at 72 h [2]: > 50 µg/mL | MCC at 72 h [3]: > 50 µg/mL

NC12CCCC3CC(CCC31)C2 (centres unmarked) [Compound A, 3-Amino-4-homoisotwistane hydrochloride]
MIC ([1]; Human alphaherpesvirus 1, host cells HeLa, 1000 TCD50, 72 hr, 37° C.): 5 µg/mL | Minimum virus growth inhibition concentration (MIC) [1, 6]: 5 µg/mL | cure period as compared with control [4]: did not prolong the cure period as compared with control | Survival ratio (no. of survivors/no. of total mice) ([5]; 5 mg/kg i.c., single, simultaneously with virus infection): 7/10 | Mean no. of survival days ([5]; 5 mg/kg i.c., single, simultaneously with virus infection, control 5.6): 7.2 days | Survival ratio (no. of survivors/no. of total mice) ([5]; 10 mg/kg i.v., single at 3 hr. after infection): 2/10 | Mean no. of survival days ([5]; 10 mg/kg i.v., single at 3 hr. after infection, control 6.2): 8.0 days | Survival ratio (no. of survivors/no. of total mice) ([5]; 100 mg/kg p.o., twice per day during 8.5 days from 4 hr. after infection): 3/10 | Mean no. of survival days ([5]; 100 mg/kg p.o., twice per day during 8.5 days from 4 hr. after infection, control 5.9): 7.8 days | Survival ratio (no. of survivors/no. of total mice) ([5]; 100 mg/kg s.c., twice per day during 8.5 days from 4 hr. after infection): 5/10 | Mean no. of survival days ([5]; 100 mg/kg s.c., twice per day during 8.5 days from 4 hr. after infection, control 5.8): 7.6 days | Lung Lesion Score (Influenza Ao PR/8; 7.5 mg/kg s.c., no significance mark): 4.6 | Lung Lesion Score (Influenza Ao PR/8; 15 mg/kg s.c., * P<0.05 (Student's t test)): 4.0 | Lung Lesion Score (Influenza Ao PR/8; 30 mg/kg s.c., * P<0.05 (Student's t test)): 4.2 | antiviral effects on herpes virus and so on, compared with tromantadine (herpes virus; comparison with tromantadine): much superior to those of tromantadine | antiviral activities on herpes virus (herpes virus; general statement): very strong antiviral activities | antiviral activities on influenza virus (influenza virus): very strong antiviral activities | antiviral effects on Newcastle disease virus (Newcastle disease virus): antiviral effects on Newcastle disease virus | LD50 (in vivo; iv): 32 mg/kg | LD50 (in vivo; po): 300 mg/kg | MCC at 72 h [2]: 50 µg/mL | MCC at 72 h [3]: 50 µg/mL

CN(C)CCOCC(=O)NC12CC3CC(CC(C3)C1)C2 [Tromantadine, tromantadine]
MIC ([1]; Human alphaherpesvirus 1, host cells KB, 1000 TCD50, 72 hr, 37° C.): 25 µg/mL (≈ 89.2 µM) | anti DNA viral activities (DNA virus): known to show an anti DNA viral activities | MCC at 72 h [2]: > 50 µg/mL
